Results on 58 molecules are retold here after ChEMBL document CHEMBL1155018, “Toward prediction of alkane/water partition coefficients” (J Med Chem, 2008).

For data set [1] the following is noted: hexadecane/water, pH 7.4.
Data set [2] can be described thus: physchem. The note with it: octanol/water, pH 7.4.
For data set [3] the following is noted: hexadecane/water.
Description: Hexadecane-water partition coefficient, log P of the compound
Data set [4] is described as follows: physchem. The conditions noted are these: octanol/water.
A short description of a further data set: in vivo. The conditions noted are these: Wistar, rat.
For data set [5] the following is noted: octanol/water.
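For Kp in this document: drug concentration in brain divided by that in blood, measured in Wistar rats.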

Consider `CN1C(=O)Cc2ccccc21`, for which the values for the logD (in data set [1]; in “physchem [2]”) were 0 and 1.25, respectively. Regarding `N#Cc1ccccc1` [BENZONITRILE], the logD in data set [1] amounted to 0.91; in the data set “physchem [2]”, 1.56. Also, the logP in data set [3] was found to be 0.99. Molecule `Cc1cnccn1` displayed a logP in the data set “physchem [4]” of 0.23. In turn, `CN(C)CCC=C1c2ccccc2CCc2ccccc21` [AMITRIPTYLINE] showed a Kp in “in vivo” (brain / blood) of 9.55. Consider `[O-][S+](CC1CCCCC1)c1ccccc1` (configuration not stated), for which the logD was 1.23 in data set [1] and 2.81 in “physchem [2]”. Taken in the same sequence, the figures for `CN1C(=O)c2ccccc2C1=O` were -0.15 and 1.32.

Regarding `CC(=O)c1ccccc1` [ACETOPHENONE], the logD in data set [1] was 0.96; in the data set “physchem [2]” it was 1.61. The molecule further returned a logP in data set [3] of 1.12.

In “in vivo” (brain / blood), `CN1Cc2c(-c3noc(C(C)(C)O)n3)ncn2-c2cccc(Cl)c2C1=O` had a Kp of 0.0457. Still for that read-out and setting: next, `Cc1nc2n(c(=O)c1CCN1CCC(c3noc4cc(F)ccc34)CC1)CCCC2O` (configuration not stated) [PALIPERIDONE]: 0.214.

In turn, `CC(C)c1nc(-c2ncn3c2CN(C)C(=O)c2c(Cl)cccc2-3)no1` gave a Kp in the data set “in vivo” (brain / blood) of 0.501.

Regarding `O=c1ccccn1Cc1ccccc1`, the results for the logD (in data set [1]; in the data set “physchem [2]”) were -0.72 and 1.37, respectively. As for `CN1Cc2c(-c3noc(C(C)(O)CO)n3)ncn2-c2cccc(Cl)c2C1=O` (configuration not stated), the Kp in “in vivo” (brain) was 0.0151. With `O=C1Cc2ccccc2CO1`, the logD in data set [1] is -0.29; in the data set “physchem [2]” it was 1.02. In “physchem [4]”, `c1ccc2nnccc2c1` [CINNOLINE] showed a logP of 1.01. In “in vivo” (brain), `COc1ccc(CN(CCN(C)C)c2ccccn2)cc1` [PYRILAMINE] showed a Kp of 3.09. Turning to `O=c1ccccn1Cc1cccc(Cl)c1`, the logD is -0.03 in data set [1] and 2.09 in the data set “physchem [2]”.

Regarding `CN(C)CCCN1c2ccccc2CCc2ccccc21` [IMIPRAMINE], the Kp in “in vivo” (brain / blood) was 11.2. Take `Cn1cnc2ccccc21`: the logD in data set [1] was -0.89; in “physchem [2]”, 1.34.

In the case of `c1ccc(Cn2ccnc2)cc1` [BENZYLIMIDAZOLE], the logD in data set [1] was -0.83; in “physchem [2]” it was 1.55.

As to `O=c1ccccn1Cc1ccc(C(F)(F)F)cc1`, the logD in data set [1] came to 0.18; in “physchem [2]”, 2.47. `Clc1ccc2ncncc2c1` returned a logP in “physchem [4]” of 1.78. In the data set “in vivo” (brain), `CN1C[C@@H]2c3ccccc3Oc3ccc(Cl)cc3[C@H]2C1` [ASENAPINE] had a Kp of 10.7.

`Cn1c(=O)ccc2ccccc21`: the logD in data set [1] was -0.15; in “physchem [2]”, 1.52. Taken in the same sequence, the figures for `Cn1c(=O)n(C)c2ccccc21` were 0.53 and 1.33. In the case of `CNCCCN1c2ccccc2CCc2ccccc21` [DESIPRAMINE], in the data set “in vivo” (brain), the Kp was found to be 10.

Take `O=c1ccn(Cc2ccc(-c3ccccc3)cc2)cc1`: the results for the logD (in data set [1]; in the data set “physchem [2]”) were -1.76 and 2.47, respectively. Taken in the same sequence, the figures for `c1ccc2[nH]ccc2c1` [INDOLE] were 0.66 and 2.24. `CN(C)C(=O)Cc1ccc(Br)cc1`: the logD was 0.07 in data set [1] and 1.83 in the data set “physchem [2]”. In “physchem [2]”, `c1ccc2ncccc2c1` [QUINOLINE] gave a logD of 1.99.

For `CC(=O)N(C)c1ccccc1`, the logD is -0.54 in data set [1] and 1 in the data set “physchem [2]”. For `Cc1ccc2occc(=O)c2c1`, in that order: 0.56 and 1.9. For `Clc1ccccn1` [2-CHLOROPYRIDINE], in that order: 0.52 and 1.23. For `c1cnc2cccnc2c1`, in that order: -0.49 and 0.79. In turn, `Cc1cccc2c1Oc1ccccc1[C@@]1(O)CCN(C)C[C@@H]21` gave a Kp in “in vivo” (brain) of 6.61. In the case of `CN(C)C(=O)N(C)c1ccccc1`, the logD stood at 0.16 in data set [1] and 1.6 in the data set “physchem [2]”. For `CCN1C(=O)Cc2ccccc21`, in that order: 0.49 and 1.69. Taken in the same sequence, the figures for `c1ccc2c(c1)COC2` were 1.36 and 1.74. Turning to `O=[N+]([O-])c1ccccc1` [NITROBENZENE], the logD in “physchem [2]” was 1.83. `CN1CCN2c3ncccc3Cc3ccccc3C2C1` (configuration not stated) [MIRTAZAPINE] gave a Kp in the data set “in vivo” (brain) of 3.39.

On to `Clc1ccc(Cn2ccnn2)cc1`, for which the logP in “physchem [4]” turned out to be 1.78. Take `Cc1cccc2c1Oc1ccccc1[C@@]1(O)CCNC[C@@H]21`: in the data set “in vivo” (brain), the Kp is 3.31. With `CCn1c(C)cc(=O)c2ccc(Cl)cc21`, the logD is -1.4 in data set [1] and 1.8 in “physchem [2]”.

In the case of `c1ccc2nccnc2c1` [QUINOXALINE], the logD was determined as 0.47 in data set [1] and 1.31 in “physchem [2]”.

For the molecule `COc1ccc(C#N)cc1`, the logD was determined as 0.92 in data set [1] and 1.75 in the data set “physchem [2]”. As for `Cc1ccc2c(c1)c(C)cc(C)[n+]2[O-]`, the figures for the logD (in data set [1]; in “physchem [2]”) were -0.57 and 1.71, respectively.

For `O=C1CCCN1Cc1ccccc1`, the results for the logD (in data set [1]; in “physchem [2]”) were -0.6 and 1.32, respectively.

Molecule `O=C1CCCN1CCCCN1CCN(c2cc(C(F)(F)F)ccn2)CC1` showed a Kp in “in vivo” (brain) of 1.45. On the same count and under the same terms, next, `Cc1nc2n(c(=O)c1CCN1CCC(c3noc4cc(F)ccc34)CC1)CCCC2` [RISPERIDONE]: 0.955.

For `CN1Cc2ccccc2C1=O`, the logD in data set [1] is -1.07; in “physchem [2]” it was 0.87.

Take `c1ccc2cnccc2c1` [ISOQUINOLINE]: the pH-dependent lipophilicity (logD) in data set [1] is 0.98; in the data set “physchem [2]”, 2.09.

Take `O=S(=O)(c1ccccc1)c1ccccc1` [(PHENYLSULFONYL)BENZENE]: the log distribution coefficient (logD) in data set [1] amounted to 0.75; in “physchem [2]”, 2.41.

Consider `COc1ccccc1` [ANISOLE], for which the logD worked out at 1.9 in data set [1] and 2.15 in the data set “physchem [2]”. For the same molecule, in data set [3], the logP came to 2.13.

The molecule `Clc1ccc2c(c1)[C@H]1CNC[C@@H]1c1ccccc1O2` had a Kp in the data set “in vivo” (brain / blood) of 2.45.

In turn, `N#Cc1ccncc1` [ISONICOTINONITRILE] had a logP in data set [5] of 0.46. In the case of `c1ccc2nocc2c1` [BENZO[C]ISOXAZOLE], the values for the logD (in data set [1]; in the data set “physchem [2]”) were 0.75 and 1.49, respectively.

For `Clc1ccc2cc[nH]c2c1`, the logD in data set [1] was found to be 1.36; in “physchem [2]”, 3.22. As to `[O-][S+](c1ccccc1)c1ccccc1`, the logD in data set [1] was determined as 0.66; in the data set “physchem [2]” it was 2.1. Taken in the same sequence, the figures for `CN(C)C(=O)c1ccccc1` were -0.98 and 0.71.

Broadly, the logD is lipophilicity at a set pH, counting ionised and neutral species. What is called logP is a log measure of how a compound divides between an organic and an aqueous phase. Higher therefore signals higher lipophilicity.
